Assay results taken from patent US20020156325A1, “Asymmetric beta-ketoiminate ligand compound, preparation method thereof, and organometal percursor comprising the same” (priority 2001, published 2002).

Assay: Thermal gravimetric analysis at atmospheric pressure
Assay type: physicochemical

| solid residue left after vaporization or decomposition | temperature at which the metal complex was vaporized or decomposed | residue left after vaporization or decomposition (in words) (at 290° C.) | Substance |
| --- | --- | --- | --- |
| 7% | about 330 °C | – | Ti[CH3COCHCNH(CH2CH2OH)CH2CH3]2 [Example 5] |
| – | 290 °C | little residue | Ti [CH3COCHCNH (CH2CH (CH3) OH) CH2CH3]2 [Example 4] |
| about 12% | about 380 °C | – | Ti[CH3COCHCN(CH2CH2OH)2CH2CH3]2 [Example 6] |
